Laboratory results reported in US11713335B2, “Aminocoumarin compounds and methods of their use” (President and Fellows of Harvard College, priority 2018, dated 2023).
In brackets after ≈: the same amount, converted by molar mass. Like-named read-outs stand apart in the source and are kept apart here.

Experiments:
E. cloacae 13047 = test: Minimal inhibitory concentration, E. cloacae 13047; type: cell-based; settings: 16 hour minimal inhibitory concentration at 37° C., read-out: MIC (μM) E. cloacae 13047
Outline: (§1)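 Saturated overnight cultures in LB (TSA for S. aureus), grown at 37 °C with shaking, were diluted 1:100 twice and exposed to twofold serial dilutions of compound from DMSO stock. After 16 h static incubation at 37 °C, OD600 was read; MIC is the lowest concentration inhibiting growth, reported in µM.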

S. aureus MW2 = test: Minimal inhibitory concentration, S. aureus MW2; type: cell-based; settings: 16 hour minimal inhibitory concentration at 37° C., read-out: MIC (μM) S. aureus MW2 (MRSA)
Outline: as §1

E. coli 25922 = test: Minimal inhibitory concentration, E. coli 25922; type: cell-based; settings: 16 hour minimal inhibitory concentration at 37° C., read-out: MIC (μM) E. coli 25922
Outline: as §1

WT E. coli = test: Minimal inhibitory concentration in wild-type E. coli; type: cell-based, Escherichia coli; settings: wild-type E. coli, 37° C., 16 hours, read-out: MIC (μM) in WT E. coli
Outline: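 Broth microdilution: saturated LB overnight culture diluted 1:100 twice, compound serially two-fold diluted across the plate from DMSO stock. Static incubation 16 hours at 37° C, OD600 read; MIC taken as lowest concentration inhibiting growth.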

S. aureus RN4220 = test: Minimal inhibitory concentration, S. aureus RN4220; type: cell-based; settings: 16 hour minimal inhibitory concentration at 37° C., read-out: MIC (μM) S. aureus RN4220
Outline: as §1

A. baumannii 19606 = test: Minimal inhibitory concentration, A. baumannii 19606; type: cell-based; settings: 16 hour minimal inhibitory concentration at 37° C., read-out: MIC (μM) A. baumannii 19606
Outline: as §1

E. coli MC4100 = test: Minimal inhibitory concentration, E. coli MC4100; type: cell-based; settings: 16 hour minimal inhibitory concentration at 37° C., read-out: MIC (μM) E. coli MC4100 ara+
Outline: as §1

K. pneumoniae 700721 = test: Minimal inhibitory concentration, K. pneumoniae 700721; type: cell-based; settings: 16 hour minimal inhibitory concentration at 37° C., read-out: MIC (μM) K. pneumoniae 700721
Outline: as §1

[1] = Staphylococcus aureus, MRSA, 16 h
[2] = Staphylococcus aureus, RN4220, 16 h
[3] = Acinetobacter baumannii, 19606, 16 h

Row | SMILES | MIC (E. cloacae 13047) [µM] | MIC (S. aureus MW2) [µM] | MIC (E. coli 25922) [µM] | MIC (WT E. coli) [µM] | MIC (S. aureus RN4220) [µM] | MIC (A. baumannii 19606) [µM] | MIC (E. coli MC4100) [µM] | MIC (K. pneumoniae 700721) [µM] | MIC (E. cloacae 13047; Enterobacter cloacae, 13047) [µM] | MIC (S. aureus MW2; [1]) [µM] | MIC (E. coli 25922; Escherichia coli, 25922, 16 h) [µM] | MIC (WT E. coli; Escherichia coli) [µM] | MIC (S. aureus RN4220; [2]) [µM] | MIC (A. baumannii 19606; [3]) [µM] | MIC (E. coli MC4100; Escherichia coli, MC4100, 16 h) [µM] | MIC (K. pneumoniae 700721; Klebsiella pneumoniae, 700721) [µM]
1 | CO[C@@H]1[C@@H](OC(N)=O)[C@@H](O)[C@H](Oc2ccc3c(O)c(NC(=O)c4ccc(O)c(-c5ccc(F)cc5)c4)c(=O)oc3c2C)OC1(C)C [Compound 79] | >100 | 0.98 (≈ 0.626 µg/mL) | 20 (≈ 12.8 µg/mL) | 26 (≈ 16.6 µg/mL) | 2 (≈ 1.28 µg/mL) | 20 (≈ 12.8 µg/mL) | 26 (≈ 16.6 µg/mL) | 78 (≈ 49.8 µg/mL) |  |  |  |  |  |  |  | 
2 | COc1ccc(-c2cccc(C(=O)Nc3c(O)c4ccc(O[C@@H]5OC(C)(C)[C@H](OC)[C@@H](OC(N)=O)[C@H]5O)c(C)c4oc3=O)c2)cc1 [Compound 46] |  |  |  |  |  |  |  |  | > 100 | 3 (≈ 1.9 µg/mL) | > 200 | > 300 | 5 (≈ 3.17 µg/mL) | > 50 | > 200 | > 100
3 | CO[C@@H]1[C@@H](OC(N)=O)[C@@H](O)[C@H](Oc2ccc3c(O)c(NC(=O)c4cccc(C5CCC5)c4)c(=O)oc3c2C)OC1(C)C [Compound 53] | >100 | 11 (≈ 6.41 µg/mL) | >200 | >300 | 11 (≈ 6.41 µg/mL) | >50 | >200 | >100 |  |  |  |  |  |  |  | 
4 | CO[C@@H]1[C@@H](OC(N)=O)[C@@H](O)[C@H](Oc2ccc3c(O)c(NC(=O)c4cccc(-c5c(C)cccc5C)c4)c(=O)oc3c2C)OC1(C)C [Compound 21] |  |  |  |  |  |  |  |  | > 100 | 10 (≈ 6.33 µg/mL) | > 200 | 133 (≈ 84.1 µg/mL) | 10 (≈ 6.33 µg/mL) | > 50 | 133 (≈ 84.1 µg/mL) | > 100
5 | CO[C@@H]1[C@@H](OC(N)=O)[C@@H](O)[C@H](Oc2ccc3c(O)c(NC(=O)c4cccc(-c5cccc(C)c5)c4)c(=O)oc3c2C)OC1(C)C [Compound 51] |  |  |  |  |  |  |  |  | > 100 | 1 (≈ 0.619 µg/mL) | 81 (≈ 50.1 µg/mL) | 26 (≈ 16.1 µg/mL) | 1.62 (≈ 1 µg/mL) | 40 (≈ 24.7 µg/mL) | 26 (≈ 16.1 µg/mL) | > 100
6 | CO[C@@H]1[C@@H](OC(N)=O)[C@@H](O)[C@H](Oc2ccc3c(O)c(NC(=O)c4cc(-c5ccccc5)cc(-c5ccccc5)c4)c(=O)oc3c2C)OC1(C)C [Compound 75] | >100 | 9 (≈ 6.13 µg/mL) | >200 | >300 | 18 (≈ 12.3 µg/mL) | >50 | >200 | >100 |  |  |  |  |  |  |  | 
7 | CO[C@@H]1[C@@H](OC(N)=O)[C@@H](O)[C@H](Oc2ccc3c(O)c(NC(=O)c4cccc(-c5ccc(C)cc5)c4)c(=O)oc3c2C)OC1(C)C [Compound 20] | >100 | 3 (≈ 1.86 µg/mL) | 40 (≈ 24.7 µg/mL) | 26 (≈ 16.1 µg/mL) | 2.5 (≈ 1.55 µg/mL) | 40 (≈ 24.7 µg/mL) | 26 (≈ 16.1 µg/mL) | >100 |  |  |  |  |  |  |  | 
8 | CO[C@@H]1[C@@H](OC(N)=O)[C@@H](O)[C@H](Oc2ccc3c(O)c(NC(=O)c4cccc(-c5ccccc5C)c4)c(=O)oc3c2C)OC1(C)C [Compound 47] |  |  |  |  |  |  |  |  | > 100 | 10 (≈ 6.19 µg/mL) | 40 (≈ 24.7 µg/mL) | 26 (≈ 16.1 µg/mL) | 20 (≈ 12.4 µg/mL) | > 50 | 26 (≈ 16.1 µg/mL) | > 100
9 | CO[C@@H]1[C@@H](OC(N)=O)[C@@H](O)[C@H](Oc2ccc3c(O)c(NC(=O)c4ccccc4)c(=O)oc3c2C)OC1(C)C [Compound 8] | >100 | >100 | >200 | >300 | >100 | >50 | >200 | >100 |  |  |  |  |  |  |  | 
10 | CO[C@@H]1[C@@H](OC(N)=O)[C@@H](O)[C@H](Oc2ccc3c(O)c(NC(=O)c4ccc5c(ccn5C)c4)c(=O)oc3c2C)OC1(C)C.Cl [Compound 73] | >100 | 81 | >200 | >300 | >100 | >50 | >200 | >100 |  |  |  |  |  |  |  | 
11 | CO[C@@H]1[C@@H](OC(N)=O)[C@@H](O)[C@H](Oc2ccc3c(O)c(NC(=O)c4cccc(-c5ccccc5C(F)(F)F)c4)c(=O)oc3c2C)OC1(C)C [Compound 60] | >100 | 5 (≈ 3.36 µg/mL) | >200 | >300 | 9 (≈ 6.05 µg/mL) | >50 | >200 | >100 |  |  |  |  |  |  |  | 
12 | CO[C@@H]1[C@@H](OC(N)=O)[C@@H](O)[C@H](Oc2ccc3c(O)c(NC(=O)Nc4cccc(-c5ccccc5)c4)c(=O)oc3c2C)OC1(C)C [Compound 3] |  |  |  |  |  |  |  |  | > 100 | 81 (≈ 50.2 µg/mL) | > 200 | > 300 | 81 (≈ 50.2 µg/mL) | > 50 | > 200 | > 100
13 | CO[C@@H]1[C@@H](OC(N)=O)[C@@H](O)[C@H](Oc2ccc3c(O)c(NC(=O)c4cc(-c5ccc(F)cc5)c(O)cc4O)c(=O)oc3c2C)OC1(C)C [Compound 84] | 81 (≈ 53 µg/mL) | 5 (≈ 3.27 µg/mL) | 10 (≈ 6.55 µg/mL) | 8 (≈ 5.24 µg/mL) | 5 (≈ 3.27 µg/mL) | >50 | 8 (≈ 5.24 µg/mL) | 40 (≈ 26.2 µg/mL) |  |  |  |  |  |  |  | 
14 | CO[C@@H]1[C@@H](OC(N)=O)[C@@H](O)[C@H](Oc2ccc3c(O)c(NC(=O)c4ccc(O)c(CC=C(C)C)c4)c(=O)oc3c2C)OC1(C)C [Novobiocin, novobiocin, reference compound] |  |  |  |  |  |  |  |  | > 100 | 0.25 (≈ 0.153 µg/mL) | 40 (≈ 24.5 µg/mL) | 59 (≈ 36.1 µg/mL) | 0.2 (≈ 0.123 µg/mL) | 1.27 (≈ 0.778 µg/mL) | 59 (≈ 36.1 µg/mL) | > 100
15 | CO[C@@H]1[C@@H](OC(N)=O)[C@@H](O)[C@H](Oc2ccc3c(O)c(NC(=O)c4cccc(-c5ccc(Br)cc5)c4)c(=O)oc3c2C)OC1(C)C [Compound 68] |  |  |  |  |  |  |  |  | > 100 | 0.91 (≈ 0.622 µg/mL) | 18 (≈ 12.3 µg/mL) | 18 (≈ 12.3 µg/mL) | 0.91 (≈ 0.622 µg/mL) | 18 (≈ 12.3 µg/mL) | 18 (≈ 12.3 µg/mL) | > 100
16 | COc1ccc(C(=O)Nc2c(O)c3ccc(O[C@@H]4OC(C)(C)[C@H](OC)[C@@H](OC(N)=O)[C@H]4O)c(C)c3oc2=O)cc1OC [Compound 9] |  |  |  |  |  |  |  |  | > 100 | 43 (≈ 25.3 µg/mL) | > 200 | > 300 | 85 (≈ 50 µg/mL) | > 50 | > 200 | > 100
17 | CO[C@@H]1[C@@H](OC(N)=O)[C@@H](O)[C@H](Oc2ccc3c(O)c(NC(=O)c4ccc(CCc5ccccc5)cc4)c(=O)oc3c2C)OC1(C)C [Compound 77] | >100 | 5 (≈ 3.16 µg/mL) | 40 (≈ 25.3 µg/mL) | 40 (≈ 25.3 µg/mL) | 10 (≈ 6.33 µg/mL) | >50 | 40 (≈ 25.3 µg/mL) | >100 |  |  |  |  |  |  |  | 
18 | CO[C@@H]1[C@@H](OC(N)=O)[C@@H](O)[C@H](Oc2ccc3c(O)c(NC(=O)c4cc(O)c(O)c(-c5ccc(F)cc5)c4)c(=O)oc3c2C)OC1(C)C [Compound 95] | >100 | 38 (≈ 24.9 µg/mL) | 38 (≈ 24.9 µg/mL) | 38 (≈ 24.9 µg/mL) | 38 (≈ 24.9 µg/mL) | >50 | 38 (≈ 24.9 µg/mL) | >100 |  |  |  |  |  |  |  | 
19 | CO[C@@H]1[C@@H](OC(N)=O)[C@@H](O)[C@H](Oc2ccc3c(O)c(NC(=O)c4cccc(Oc5ccccc5)c4)c(=O)oc3c2C)OC1(C)C [Compound 35] |  |  |  |  |  |  |  |  | > 100 | 20 (≈ 12.4 µg/mL) | 10 (≈ 6.21 µg/mL) | 8 (≈ 4.96 µg/mL) | 40 (≈ 24.8 µg/mL) | > 50 | 8 (≈ 4.96 µg/mL) | > 100
20 | CO[C@@H]1[C@@H](OC(N)=O)[C@@H](O)[C@H](Oc2ccc3c(O)c(NC(=O)c4ccc(O)c(CC(N)=O)c4)c(=O)oc3c2C)OC1(C)C [Compound 90] | >100 | >100 | >200 | >300 | >100 | >50 | >200 | >100 |  |  |  |  |  |  |  | 
